From ChEMBL document CHEMBL3232801, “Oxidative stress in Alzheimer's disease: are we connecting the dots?” (J Med Chem, 2014)

Tests used:
[1] = target: T1, Amyloid-beta precursor protein (Homo sapiens, UniProt P05067); test: Inhibition of amyloid beta (unknown origin) aggregation at 10 uM
[2] = target: T2, Acetylcholinesterase (Homo sapiens, UniProt P22303); test: Inhibition of AChE (unknown origin)-mediated amyloid beta aggregation at 100 uM
[3] = target: T2, Acetylcholinesterase; test: Inhibition of AChE (unknown origin)
[4] = target: T2, Acetylcholinesterase; test: Inhibition of AChE (unknown origin) assessed as inhibition of ROS production
[5] = target: T1, Amyloid-beta precursor protein; test: Inhibition of amyloid beta (unknown origin) aggregation at 25 uM
[6] = target: T1, Amyloid-beta precursor protein; test: Inhibition of amyloid beta (unknown origin) aggregation

T1 sequence (P05067 whole entry): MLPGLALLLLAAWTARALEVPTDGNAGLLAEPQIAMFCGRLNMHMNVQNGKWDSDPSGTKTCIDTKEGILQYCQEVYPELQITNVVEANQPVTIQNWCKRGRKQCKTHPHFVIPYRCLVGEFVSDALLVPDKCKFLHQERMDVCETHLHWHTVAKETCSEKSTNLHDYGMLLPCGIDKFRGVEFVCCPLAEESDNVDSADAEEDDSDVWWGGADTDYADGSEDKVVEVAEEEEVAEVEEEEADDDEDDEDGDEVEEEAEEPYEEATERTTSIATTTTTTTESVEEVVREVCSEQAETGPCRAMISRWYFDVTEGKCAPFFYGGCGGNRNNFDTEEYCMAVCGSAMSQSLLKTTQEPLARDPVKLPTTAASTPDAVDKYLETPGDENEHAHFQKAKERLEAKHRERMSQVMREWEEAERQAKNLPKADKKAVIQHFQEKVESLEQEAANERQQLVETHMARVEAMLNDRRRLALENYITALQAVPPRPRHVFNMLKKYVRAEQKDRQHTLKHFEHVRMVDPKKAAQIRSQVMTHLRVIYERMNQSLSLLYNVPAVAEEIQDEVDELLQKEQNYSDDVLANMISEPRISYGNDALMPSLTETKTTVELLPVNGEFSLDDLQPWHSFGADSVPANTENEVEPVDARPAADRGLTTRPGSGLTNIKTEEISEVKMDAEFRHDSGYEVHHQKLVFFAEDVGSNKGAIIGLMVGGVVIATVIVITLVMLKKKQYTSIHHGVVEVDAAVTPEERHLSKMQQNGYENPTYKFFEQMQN
T2 sequence (P22303 whole entry): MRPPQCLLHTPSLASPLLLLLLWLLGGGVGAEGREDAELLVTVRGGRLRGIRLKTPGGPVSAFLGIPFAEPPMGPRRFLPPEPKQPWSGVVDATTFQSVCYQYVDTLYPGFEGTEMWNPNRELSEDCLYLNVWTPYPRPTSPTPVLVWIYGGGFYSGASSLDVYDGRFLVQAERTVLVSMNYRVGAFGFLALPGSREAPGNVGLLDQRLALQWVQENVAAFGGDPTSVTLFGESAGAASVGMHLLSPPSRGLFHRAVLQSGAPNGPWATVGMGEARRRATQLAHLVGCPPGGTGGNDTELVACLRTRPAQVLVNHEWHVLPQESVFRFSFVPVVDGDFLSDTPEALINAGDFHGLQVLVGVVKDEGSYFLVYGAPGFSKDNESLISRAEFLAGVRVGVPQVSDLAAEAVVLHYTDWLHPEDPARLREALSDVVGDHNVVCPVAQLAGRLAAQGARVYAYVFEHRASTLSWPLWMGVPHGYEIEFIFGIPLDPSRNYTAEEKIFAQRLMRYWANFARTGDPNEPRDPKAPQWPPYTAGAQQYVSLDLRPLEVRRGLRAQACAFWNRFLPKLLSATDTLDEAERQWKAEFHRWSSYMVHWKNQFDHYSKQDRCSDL

Compound | inhibition [1] [%] | inhibition [2] [%] | IC50 [3] [nM] | IC50 [4] [nM] | inhibition [5] [%] | IC50 [6] [nM]
O=C(CCCOc1cccc2[nH]c3ccccc3c12)NCCCNc1c2c(nc3ccccc13)CCCC2 | 36 | 57.7 | 2.15 | 23000 |  | 
COc1cc(/C=C/C(=O)NCCCCCCNc2c3c(nc4ccccc24)CCCC3)ccc1O |  |  | 11.6 |  | 100 | 
c1ccc2c(NCCSSCCNc3c4c(nc5ccccc35)CCCC4)c3c(nc2c1)CCCC3 |  | 52.6 | 5.04 |  |  | 24200
